Numbers after ± are expanded uncertainties.
Experiment: mn = molality of the nth substance listed, in mol/kg
Details: Liquid, glass piezometer

[I-].[NH4+] [ammonium iodide] + N
mass density [kg/m3]
Details	m1 = 0.867	m1 = 1.827	m1 = 3.103	m1 = 4.856	m1 = 7.271	m1 = 11.18	m1 = 16.46
343.15 K, 10000 kPa	632.1 ± 2.5	716.4 ± 2.9	814.6 ± 3.3	933.1 ± 3.7	1062.2 ± 4.3	1188.9 ± 4.8	1293.1 ± 5.2
343.15 K, 15000 kPa	638 ± 2.6	721.7 ± 2.9	818.9 ± 3.3	937.1 ± 3.8	1065.7 ± 4.3	1192.1 ± 4.8	1296 ± 5.2
343.15 K, 20000 kPa	643.7 ± 2.6	726.9 ± 2.9	823.2 ± 3.3	941.1 ± 3.8	1069.2 ± 4.3	1194.9 ± 4.8	1298.5 ± 5.2
343.15 K, 25000 kPa	649.4 ± 2.6	731.9 ± 2.9	827.6 ± 3.3	945.1 ± 3.8	1072.4 ± 4.3	1197.3 ± 4.8	1301.4 ± 5.2
343.15 K, 30000 kPa	654.8 ± 2.6	737 ± 3	831.8 ± 3.3	949.2 ± 3.8	1075.2 ± 4.3	1199.8 ± 4.8	1303.9 ± 5.2
353.15 K, 10000 kPa	615.5 ± 2.5	700.1 ± 2.8	797.7 ± 3.2	917.8 ± 3.7	1049.9 ± 4.2	1177.9 ± 4.7	1284.9 ± 5.2
353.15 K, 15000 kPa	621.8 ± 2.5	705.7 ± 2.8	803 ± 3.2	922.1 ± 3.7	1053.5 ± 4.2	1181 ± 4.7	1287.4 ± 5.2
353.15 K, 20000 kPa	627.9 ± 2.5	711.2 ± 2.8	808.3 ± 3.2	926.5 ± 3.7	1056.9 ± 4.2	1183.7 ± 4.7	1289.9 ± 5.2
353.15 K, 25000 kPa	634.3 ± 2.5	716.6 ± 2.9	813.5 ± 3.3	931 ± 3.7	1060.4 ± 4.3	1186.5 ± 4.8	1292.4 ± 5.2
353.15 K, 30000 kPa	640.4 ± 2.6	721.9 ± 2.9	818.7 ± 3.3	935.2 ± 3.8	1063.5 ± 4.3	1188.9 ± 4.8	1294.5 ± 5.2
363.15 K, 10000 kPa	593.9 ± 2.4	680.1 ± 2.7	780.9 ± 3.1	903.2 ± 3.6	1037.1 ± 4.2	1166.7 ± 4.7	1274.7 ± 5.1
363.15 K, 15000 kPa	601.7 ± 2.4	687.2 ± 2.8	786.3 ± 3.2	907.9 ± 3.6	1040.7 ± 4.2	1169.8 ± 4.7	1277.2 ± 5.1
363.15 K, 20000 kPa	609.6 ± 2.4	694.2 ± 2.8	791.7 ± 3.2	912.5 ± 3.7	1044.1 ± 4.2	1172.8 ± 4.7	1279.6 ± 5.1
363.15 K, 25000 kPa	617.4 ± 2.5	701.2 ± 2.8	797.3 ± 3.2	916.8 ± 3.7	1047.4 ± 4.2	1175.5 ± 4.7	1281.7 ± 5.1
363.15 K, 30000 kPa	625.2 ± 2.5	708.4 ± 2.8	802.8 ± 3.2	921.1 ± 3.7	1050.5 ± 4.2	1177.9 ± 4.7	1283.9 ± 5.1
373.15 K, 10000 kPa	579.5 ± 2.3	666.9 ± 2.7	768.1 ± 3.1	889.8 ± 3.6	1026.1 ± 4.1	1155.3 ± 4.6	1265.9 ± 5.1
373.15 K, 15000 kPa	587.3 ± 2.4	674 ± 2.7	773.7 ± 3.1	894.4 ± 3.6	1029.7 ± 4.1	1158.5 ± 4.6	1268.6 ± 5.1
373.15 K, 20000 kPa	595.1 ± 2.4	681 ± 2.7	779.4 ± 3.1	898.9 ± 3.6	1033.2 ± 4.1	1161.6 ± 4.7	1271 ± 5.1
373.15 K, 25000 kPa	603.1 ± 2.4	687.8 ± 2.8	785.2 ± 3.1	903.4 ± 3.6	1036.7 ± 4.2	1164.3 ± 4.7	1273.4 ± 5.1
373.15 K, 30000 kPa	610.8 ± 2.4	694.7 ± 2.8	790.9 ± 3.2	907.8 ± 3.6	1039.9 ± 4.2	1166.8 ± 4.7	1275.8 ± 5.1

Source: the NIST ThermoML archive (doi:10.1021/je9006713)
